# The supplement of paper PMC10307832
# Assays:
# Assay in all cases: relative viability (nuclei count vs DMSO), 5 days (fraction); higher = more cells survive
# Sulindac + Navitoclax = compound: CC1=C(CC(=O)O)c2cc(F)ccc2/C1=C\c1ccc([S+](C)[O-])cc1 [Sulindac] + CC1(C)CCC(c2ccc(Cl)cc2)=C(CN2CCN(c3ccc(C(=O)NS(=O)(=O)c4ccc(N[C@H](CCN5CCOCC5)CSc5ccccc5)c(S(=O)(=O)C(F)(F)F)c4)cc3)CC2)C1 [Navitoclax] (partner 0.5 µM)
# Outline: (§1)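 After 5 days of treatment, lung cancer cells in 1536-well plates were fixed and stained in a single step (final 0.05% Triton X-100, 1% formaldehyde, 1 ug/ml Hoechst) and their nuclei counted on 4× images. Treatment had been applied by pin tool the day after seeding as one drug alone or as a fixed anchor-drug dose with five library-drug doses (not always all listed) in √10 steps. Relative viability is the nuclei count of treated wells divided by that of vehicle wells, and values are medians of duplicate plates.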
# Staurosporine + OSI-027 = compound: CN[C@@H]1C[C@H]2O[C@@](C)([C@@H]1OC)n1c3ccccc3c3c4c(c5c6ccccc6n2c5c31)C(=O)NC4 [Staurosporine] + COc1cccc2cc(-c3nc([C@H]4CC[C@H](C(=O)O)CC4)n4ncnc(N)c34)[nH]c12 [OSI-027] (partner 0.5 µM)
# Outline: as §1
# [1] = compound: O=c1[nH]cc(F)c(=O)[nH]1 [5-Fluorouracil] + CC(=O)Nc1cccc(-n2c(=O)n(C3CC3)c(=O)c3c(Nc4ccc(I)cc4F)n(C)c(=O)c(C)c32)c1 [Trametinib] (partner 0.02 µM)
# Outline: as §1
# [2] = compound: O=c1[nH]cc(F)c(=O)[nH]1 [5-Fluorouracil] + C[C@]1(O)C[C@@H](c2nc(-c3ccc4ccc(-c5ccccc5)nc4c3)c3c(N)nccn32)C1 [Linsitinib] (partner 1 µM)
# Outline: as §1
Cell Line,relative viability (Sulindac + Navitoclax; first compound 0.08 µM),relative viability (Sulindac + Navitoclax; first compound 0.253 µM),relative viability (Sulindac + Navitoclax; first compound 2.53 µM),relative viability (Sulindac + Navitoclax; first compound 8 µM),relative viability (Staurosporine + OSI-027; first compound 0.005 µM),relative viability (Staurosporine + OSI-027; first compound 0.01581 µM),relative viability (Staurosporine + OSI-027; first compound 0.05 µM),relative viability (Staurosporine + OSI-027; first compound 0.1581 µM),relative viability (Staurosporine + OSI-027; first compound 0.5 µM),relative viability ([1]; first compound 0.02 µM),relative viability ([1]; first compound 0.2 µM),relative viability ([1]; first compound 0.6325 µM),relative viability ([1]; first compound 2 µM),relative viability ([2]; first compound 0.02 µM),relative viability ([2]; first compound 0.2 µM),relative viability ([2]; first compound 0.6325 µM),relative viability ([2]; first compound 2 µM),relative viability (Sulindac + Navitoclax; first compound 0.8 µM)
PC-14,0.933,1.1,1.07,1.14,0.325,0.0499,0.0618,0.0552,0.0305,0.837,0.734,0.81,0.456,0.938,0.943,0.765,–,–
HARA,1.21,1.24,1.18,1.14,0.448,–,0.128,0.0628,0.0398,0.852,0.625,0.856,0.644,0.963,1.02,0.885,0.891,–
NCI-H23,0.809,0.84,0.84,0.923,0.518,–,0.248,0.16,0.0998,0.483,0.331,0.285,0.211,0.488,0.631,0.444,0.271,0.785
LCLC-97TM1,0.566,0.397,–,0.351,0.343,0.234,0.245,0.203,0.198,0.181,0.203,0.209,0.188,0.175,0.193,0.153,0.144,0.386
LC-2-ad,0.384,0.495,0.434,0.564,0.807,0.25,0.342,0.216,0.199,1.02,0.894,0.552,0.349,0.868,0.798,0.463,0.299,0.548
NCI-H1666,–,0.963,0.853,1.19,0.658,0.542,0.548,0.425,0.262,0.891,0.714,0.601,0.56,0.777,0.412,0.401,0.321,0.793
EKVX,0.976,0.969,1.04,1.07,0.557,0.399,0.284,0.209,0.15,0.326,–,0.187,0.148,0.891,0.282,0.153,0.142,0.889
SW 1573,–,1.02,1.09,1.2,0.161,0.11,0.085,0.0637,0.0578,0.576,0.631,0.497,0.306,0.734,0.917,0.782,0.483,–
HCC-827,1.04,1.02,0.973,1.08,0.875,0.672,0.476,0.383,0.211,0.407,0.544,0.425,0.276,0.909,0.95,0.57,0.405,0.997
NCI-H727,0.32,0.385,0.416,0.433,0.422,0.289,0.301,0.291,0.225,0.361,0.384,0.363,0.389,0.272,0.443,0.31,0.332,0.381
CAL-12T,1.67,1.35,1.38,1.42,0.196,0.142,0.166,0.152,0.09,0.424,0.393,0.33,0.299,0.487,0.87,0.673,0.412,0.969
NCI-H1648,–,–,–,–,0.245,0.199,0.207,0.293,0.314,0.467,0.405,0.466,0.306,–,–,–,–,–
NCI-H522,–,–,–,–,0.814,–,0.606,0.497,0.538,0.76,0.681,0.724,0.638,–,–,–,–,–
IA-LM,0.696,0.863,0.81,0.79,–,–,–,–,–,–,–,–,–,0.597,0.485,0.175,0.213,–
EPLC-272H,1.16,–,1.23,1.27,0.29,0.142,0.163,0.0783,0.0871,0.263,0.262,0.242,0.198,1.1,0.9,–,0.305,0.828
A-427,1.07,0.94,0.926,1.04,0.363,0.158,0.153,–,0.121,0.747,0.773,0.58,0.382,1.05,1.08,1.11,0.546,0.985
NCI-H661,–,–,–,–,0.641,0.413,0.346,0.201,0.166,0.63,0.67,0.481,0.567,0.466,0.731,0.654,0.522,–
NCI-H1993,1.13,0.917,0.933,0.88,0.551,0.445,0.614,0.399,0.461,0.379,0.524,0.486,0.487,0.8,0.714,0.713,0.608,0.871
NCI-H358,–,–,–,–,0.809,0.157,0.0851,0.0615,0.0427,0.17,0.124,0.123,0.137,0.704,0.883,0.867,0.483,–
SK-LU-1,0.96,0.875,0.84,1.54,0.214,0.0957,–,0.113,0.0858,0.458,0.598,0.435,0.464,1.23,1.08,1.13,0.941,0.694
